Patent EP3394070B1, “CRYSTALLINE FORMS OF QUINOLONE ANALOGS AND THEIR SALTS” (Senhwa Biosciences, Inc., priority 2015, dated 2017)
Counter-ions that a name gives are not always drawn.

Tests used:
physchem = conditions: 42 °C, water, thermodynamic from solid
[1] = Solid-form stability of acid salts stored at elevated temperature (HPLC purity); format: physicochemical; conditions: for Purity % a/a after 3 days at 80 °C (HPLC): solid form stored at 80 °C
Procedure: (§1) Crystalline forms (i.e., salts and free base) of the present invention were analyzed by total area normalization (TAN).
Stability of the acid salts were also tested by storing the salts (solid forms) at an elevated temperature of 45 and 80 °C. Table 12 Stability of Acid Addition Salts

[2] = Stability (HPLC purity) of acid salts in water, stirred at 42 °C for 3 days; format: physicochemical; conditions: for Purity % a/a after 3 days (HPLC): in water, stirred at 42 °C for 3 days
Procedure: as §1
The mixture was stirred at 42 °C for 3 days and each solution was analyzed by HPLC for concentration and purity. Table 11 Solubility and Purity of Acid Addition Salts

[3] = water, 72 h

| Compound | solubility at 3 days (physchem) [mg/mL] | Purity % a/a after 3 days at 80 °C (HPLC) [1] [% a/a] | Purity % a/a after 3 days (HPLC) [2] [% a/a] | Aqueous Solubility (Calculated) [3] [mg/mL] | Purity % a/a after 3 days at 45 °C (HPLC) ([1]; solid form stored at 45 °C) [% a/a] | Starting Purity % a/a (HPLC) ([2]; before the 3 day test (time zero)) [% a/a] |
| --- | --- | --- | --- | --- | --- | --- |
| Cc1cnc(CNC(=O)c2c(=O)c3ccc(N4CCCN(C)CC4)nc3n3c2sc2ccccc23)cn1 [Free Base, 2-(4-Methyl-[1,4]diazepan-1-yl)-5-oxo-5H-7-thia-1,11b-diaza-benzo[c]fluorene-6-carboxylic acid (5-methyl-pyrazin-2-ylmethyl)-amide] | < 100 | 99.67 | 99.58 |  |  |  |
| Cc1cnc(CNC(=O)c2c(=O)c3ccc(N4CCCN(C)CC4)nc3n3c2sc2ccccc23)cn1 [HCl] |  | 98.71 | 88.62 | > 100 | 98.48 | 98.78 |
